Laboratory results from US20120219615A1, “Therapeutic Use of a TLR Agonist and Combination Therapy” (The Trustees of the University of Pennsylvania, priority 2010, published 2012).

Test system: G-CSF, MCP-1, MIP-1β, TNFα
Experiment: Phase I clinical study: pharmacodynamic response, plasma immune mediators (MAP)
Type: in vivo
Details: human, s.c., first dose
Description: Study Procedures: VTX-2337 was administered weekly via subcutaneous injection on Days 1, 8, and 15 of a 28-day dosing cycle for two cycles. Using a modified Fibonacci dose-escalation scheme, successive cohorts received doses ranging from 0.1 mg/m^2 to 3.9 mg/m^2 of VTX-2337. Plasma samples were collected for pharmacokinetic analysis after the first dose of the first treatment cycle and for pharmacodynamic analyses after the first dose of the first and second treatment cycles.
To evaluate the pharmacodynamic (PD) response to VTX-2337, blood was collected at 0, 4, 8, 24 hours after subcutaneous administration of the first dose of the first cycle of VTX-2337. Plasma levels of immune mediators were quantified using the human multiple analyte panel (MAP), version 1.8 (Rules Based Medicine). […] Levels of mediators in plasma collected from 9 healthy volunteers are shown for comparison to the oncology population. […]

CCCN(CCC)C(=O)C1=Cc2ccc(-c3ccc(C(=O)N4CCCC4)cc3)cc2N=C(N)C1 [VTX-2337, 2-amino-N,N-dipropyl-8-(4-(pyrrolidine-1-carbonyl)phenyl)-3H-benzo[b]azepine-4-carboxamide]
G-CSF plasma level (Cohort 1 (0.1 mg/m^2), 0 Hr): 9.7 ± 1.9 pg/mL
MCP-1 plasma level (Cohort 1 (0.1 mg/m^2), 0 Hr): 247 ± 62.7 pg/mL
MIP-1β plasma level (Cohort 1 (0.1 mg/m^2), 0 Hr): 201 ± 73.8 pg/mL
TNFα plasma level (Cohort 1 (0.1 mg/m^2), 0 Hr): 11.4 ± 4.4 pg/mL
G-CSF plasma level (Cohort 1 (0.1 mg/m^2), 4 Hr): 8.6 ± 1.6 pg/mL
MCP-1 plasma level (Cohort 1 (0.1 mg/m^2), 4 Hr): 223 ± 58.8 pg/mL
MIP-1β plasma level (Cohort 1 (0.1 mg/m^2), 4 Hr): 196 ± 71.9 pg/mL
TNFα plasma level (Cohort 1 (0.1 mg/m^2), 4 Hr): 10.5 ± 2.6 pg/mL
G-CSF plasma level (Cohort 1 (0.1 mg/m^2), 8 Hr): 11.9 ± 4.4 pg/mL
MCP-1 plasma level (Cohort 1 (0.1 mg/m^2), 8 Hr): 280 ± 97.0 pg/mL
MIP-1β plasma level (Cohort 1 (0.1 mg/m^2), 8 Hr): 204 ± 74.0 pg/mL
TNFα plasma level (Cohort 1 (0.1 mg/m^2), 8 Hr): 10.3 ± 4.0 pg/mL
G-CSF plasma level (Cohort 1 (0.1 mg/m^2), 24 Hr): 9.2 ± 2.5 pg/mL
MCP-1 plasma level (Cohort 1 (0.1 mg/m^2), 24 Hr): 250 ± 85.0 pg/mL
MIP-1β plasma level (Cohort 1 (0.1 mg/m^2), 24 Hr): 207 ± 73.8 pg/mL
TNFα plasma level (Cohort 1 (0.1 mg/m^2), 24 Hr): 10.2 ± 3.6 pg/mL
G-CSF plasma level (Cohort 2 (0.2 mg/m^2), 0 Hr): 7.8 ± 3.2 pg/mL
MCP-1 plasma level (Cohort 2 (0.2 mg/m^2), 0 Hr): 245 ± 167 pg/mL
MIP-1β plasma level (Cohort 2 (0.2 mg/m^2), 0 Hr): 230 ± 84.0 pg/mL
TNFα plasma level (Cohort 2 (0.2 mg/m^2), 0 Hr): 9.7 ± 5.7 pg/mL
G-CSF plasma level (Cohort 2 (0.2 mg/m^2), 4 Hr): 11.5 ± 7.8 pg/mL
MCP-1 plasma level (Cohort 2 (0.2 mg/m^2), 4 Hr): 235 ± 84.6 pg/mL
MIP-1β plasma level (Cohort 2 (0.2 mg/m^2), 4 Hr): 239 ± 74.0 pg/mL
TNFα plasma level (Cohort 2 (0.2 mg/m^2), 4 Hr): 10.8 ± 5.0 pg/mL
G-CSF plasma level (Cohort 2 (0.2 mg/m^2), 8 Hr): 19.0 ± 16.5 pg/mL
MCP-1 plasma level (Cohort 2 (0.2 mg/m^2), 8 Hr): 298 ± 100 pg/mL
MIP-1β plasma level (Cohort 2 (0.2 mg/m^2), 8 Hr): 247 ± 84.7 pg/mL
TNFα plasma level (Cohort 2 (0.2 mg/m^2), 8 Hr): 10.5 ± 6.0 pg/mL
G-CSF plasma level (Cohort 2 (0.2 mg/m^2), 24 Hr): 15.4 ± 9.0 pg/mL
MCP-1 plasma level (Cohort 2 (0.2 mg/m^2), 24 Hr): 301 ± 159 pg/mL
MIP-1β plasma level (Cohort 2 (0.2 mg/m^2), 24 Hr): 280 ± 115 pg/mL
TNFα plasma level (Cohort 2 (0.2 mg/m^2), 24 Hr): 12.4 ± 6.1 pg/mL
G-CSF plasma level (Cohort 3 (0.4 mg/m^2), 0 Hr): 12.7 ± 6.0 pg/mL
MCP-1 plasma level (Cohort 3 (0.4 mg/m^2), 0 Hr): 129 ± 30.0 pg/mL
MIP-1β plasma level (Cohort 3 (0.4 mg/m^2), 0 Hr): 172 ± 59.0 pg/mL
TNFα plasma level (Cohort 3 (0.4 mg/m^2), 0 Hr): 9.0 ± 4.9 pg/mL
G-CSF plasma level (Cohort 3 (0.4 mg/m^2), 4 Hr): 9.5 ± 0.9 pg/mL
MCP-1 plasma level (Cohort 3 (0.4 mg/m^2), 4 Hr): 137 ± 30.7 pg/mL
MIP-1β plasma level (Cohort 3 (0.4 mg/m^2), 4 Hr): 215 ± 65.6 pg/mL
TNFα plasma level (Cohort 3 (0.4 mg/m^2), 4 Hr): 10.8 ± 3.3 pg/mL
G-CSF plasma level (Cohort 3 (0.4 mg/m^2), 8 Hr): 63.8 ± 60.1 pg/mL
MCP-1 plasma level (Cohort 3 (0.4 mg/m^2), 8 Hr): 251 ± 87.9 pg/mL
MIP-1β plasma level (Cohort 3 (0.4 mg/m^2), 8 Hr): 213 ± 88.8 pg/mL
TNFα plasma level (Cohort 3 (0.4 mg/m^2), 8 Hr): 9.6 ± 3.1 pg/mL
G-CSF plasma level (Cohort 3 (0.4 mg/m^2), 24 Hr): 15.8 ± 3.5 pg/mL
MCP-1 plasma level (Cohort 3 (0.4 mg/m^2), 24 Hr): 99.5 ± 6.9 pg/mL
MIP-1β plasma level (Cohort 3 (0.4 mg/m^2), 24 Hr): 173 ± 67.4 pg/mL
TNFα plasma level (Cohort 3 (0.4 mg/m^2), 24 Hr): 10.0 ± 2.9 pg/mL
G-CSF plasma level (Cohort 4 (0.8 mg/m^2), 0 Hr): 13.2 ± 8.9 pg/mL
MCP-1 plasma level (Cohort 4 (0.8 mg/m^2), 0 Hr): 260 ± 150 pg/mL
MIP-1β plasma level (Cohort 4 (0.8 mg/m^2), 0 Hr): 165 ± 63.9 pg/mL
TNFα plasma level (Cohort 4 (0.8 mg/m^2), 0 Hr): 16.7 ± 12.6 pg/mL
G-CSF plasma level (Cohort 4 (0.8 mg/m^2), 4 Hr): 49.8 ± 80.3 pg/mL
MCP-1 plasma level (Cohort 4 (0.8 mg/m^2), 4 Hr): 1037 ± 1920 pg/mL
MIP-1β plasma level (Cohort 4 (0.8 mg/m^2), 4 Hr): 450 ± 641 pg/mL
TNFα plasma level (Cohort 4 (0.8 mg/m^2), 4 Hr): 22.0 ± 14.6 pg/mL
G-CSF plasma level (Cohort 4 (0.8 mg/m^2), 8 Hr): 137 ± 124 pg/mL
MCP-1 plasma level (Cohort 4 (0.8 mg/m^2), 8 Hr): 673 ± 386 pg/mL
MIP-1β plasma level (Cohort 4 (0.8 mg/m^2), 8 Hr): 287 ± 177 pg/mL
TNFα plasma level (Cohort 4 (0.8 mg/m^2), 8 Hr): 19.0 ± 10.6 pg/mL
G-CSF plasma level (Cohort 4 (0.8 mg/m^2), 24 Hr): 35.7 ± 14.7 pg/mL
MCP-1 plasma level (Cohort 4 (0.8 mg/m^2), 24 Hr): 267 ± 104 pg/mL
MIP-1β plasma level (Cohort 4 (0.8 mg/m^2), 24 Hr): 183 ± 55.9 pg/mL
TNFα plasma level (Cohort 4 (0.8 mg/m^2), 24 Hr): 17.5 ± 8.7 pg/mL
G-CSF plasma level (Cohort 5 (1.3 mg/m^2), 0 Hr): 5.0 ± 0.3 pg/mL
MCP-1 plasma level (Cohort 5 (1.3 mg/m^2), 0 Hr): 227 ± 79.8 pg/mL
MIP-1β plasma level (Cohort 5 (1.3 mg/m^2), 0 Hr): 182 ± 36.9 pg/mL
TNFα plasma level (Cohort 5 (1.3 mg/m^2), 0 Hr): 9.3 ± 4.1 pg/mL
G-CSF plasma level (Cohort 5 (1.3 mg/m^2), 4 Hr): 20.5 ± 24.7 pg/mL
MCP-1 plasma level (Cohort 5 (1.3 mg/m^2), 4 Hr): 911 ± 951 pg/mL
MIP-1β plasma level (Cohort 5 (1.3 mg/m^2), 4 Hr): 543 ± 477 pg/mL
TNFα plasma level (Cohort 5 (1.3 mg/m^2), 4 Hr): 14.9 ± 12.5 pg/mL
G-CSF plasma level (Cohort 5 (1.3 mg/m^2), 8 Hr): 196 ± 145 pg/mL
MCP-1 plasma level (Cohort 5 (1.3 mg/m^2), 8 Hr): 954 ± 638 pg/mL
MIP-1β plasma level (Cohort 5 (1.3 mg/m^2), 8 Hr): 688 ± 635 pg/mL
TNFα plasma level (Cohort 5 (1.3 mg/m^2), 8 Hr): 21.6 ± 13.3 pg/mL
G-CSF plasma level (Cohort 5 (1.3 mg/m^2), 24 Hr): 30.8 ± 10.4 pg/mL
MCP-1 plasma level (Cohort 5 (1.3 mg/m^2), 24 Hr): 246 ± 158 pg/mL
MIP-1β plasma level (Cohort 5 (1.3 mg/m^2), 24 Hr): 228 ± 70.1 pg/mL
TNFα plasma level (Cohort 5 (1.3 mg/m^2), 24 Hr): 15.3 ± 4.2 pg/mL
G-CSF plasma level (Cohort 6 (2.0 mg/m^2), 0 Hr): 9.9 ± 8.2 pg/mL
MCP-1 plasma level (Cohort 6 (2.0 mg/m^2), 0 Hr): 265 ± 161 pg/mL
MIP-1β plasma level (Cohort 6 (2.0 mg/m^2), 0 Hr): 136 ± 28.3 pg/mL
TNFα plasma level (Cohort 6 (2.0 mg/m^2), 0 Hr): 4.4 ± 1.6 pg/mL
G-CSF plasma level (Cohort 6 (2.0 mg/m^2), 4 Hr): 14.0 ± 4.3 pg/mL
MCP-1 plasma level (Cohort 6 (2.0 mg/m^2), 4 Hr): 247 ± 80.5 pg/mL
MIP-1β plasma level (Cohort 6 (2.0 mg/m^2), 4 Hr): 196 ± 62.5 pg/mL
TNFα plasma level (Cohort 6 (2.0 mg/m^2), 4 Hr): 8.4 ± 1.5 pg/mL
G-CSF plasma level (Cohort 6 (2.0 mg/m^2), 8 Hr): 134 ± 149 pg/mL
MCP-1 plasma level (Cohort 6 (2.0 mg/m^2), 8 Hr): 722 ± 224 pg/mL
MIP-1β plasma level (Cohort 6 (2.0 mg/m^2), 8 Hr): 289 ± 111 pg/mL
TNFα plasma level (Cohort 6 (2.0 mg/m^2), 8 Hr): 10.0 ± 2.3 pg/mL
G-CSF plasma level (Cohort 6 (2.0 mg/m^2), 24 Hr): 42.2 ± 31.6 pg/mL
MCP-1 plasma level (Cohort 6 (2.0 mg/m^2), 24 Hr): 320 ± 244 pg/mL
MIP-1β plasma level (Cohort 6 (2.0 mg/m^2), 24 Hr): 155 ± 26 pg/mL
TNFα plasma level (Cohort 6 (2.0 mg/m^2), 24 Hr): 10.0 ± 0.2 pg/mL
G-CSF plasma level (Cohort 7 (2.8 mg/m^2), 0 Hr): 7.4 ± 3.2 pg/mL
MCP-1 plasma level (Cohort 7 (2.8 mg/m^2), 0 Hr): 250 ± 110 pg/mL
MIP-1β plasma level (Cohort 7 (2.8 mg/m^2), 0 Hr): 136 ± 22 pg/mL
TNFα plasma level (Cohort 7 (2.8 mg/m^2), 0 Hr): 6.1 ± 1.8 pg/mL
G-CSF plasma level (Cohort 7 (2.8 mg/m^2), 4 Hr): 12.4 ± 2.4 pg/mL
MCP-1 plasma level (Cohort 7 (2.8 mg/m^2), 4 Hr): 719 ± 433 pg/mL
MIP-1β plasma level (Cohort 7 (2.8 mg/m^2), 4 Hr): 517 ± 305 pg/mL
TNFα plasma level (Cohort 7 (2.8 mg/m^2), 4 Hr): 10.9 ± 1.4 pg/mL
G-CSF plasma level (Cohort 7 (2.8 mg/m^2), 8 Hr): 553 ± 246 pg/mL
MCP-1 plasma level (Cohort 7 (2.8 mg/m^2), 8 Hr): 2043 ± 760 pg/mL
MIP-1β plasma level (Cohort 7 (2.8 mg/m^2), 8 Hr): 646 ± 216 pg/mL
TNFα plasma level (Cohort 7 (2.8 mg/m^2), 8 Hr): 12.8 ± 2.5 pg/mL
G-CSF plasma level (Cohort 7 (2.8 mg/m^2), 24 Hr): 59.0 ± 31.7 pg/mL
MCP-1 plasma level (Cohort 7 (2.8 mg/m^2), 24 Hr): 273 ± 109 pg/mL
MIP-1β plasma level (Cohort 7 (2.8 mg/m^2), 24 Hr): 152 ± 82 pg/mL
TNFα plasma level (Cohort 7 (2.8 mg/m^2), 24 Hr): 8.8 ± 4.1 pg/mL
G-CSF plasma level (Cohort 8 (3.9 mg/m^2), 0 Hr): 29.1 ± 55.8 pg/mL
MCP-1 plasma level (Cohort 8 (3.9 mg/m^2), 0 Hr): 249 ± 56 pg/mL
MIP-1β plasma level (Cohort 8 (3.9 mg/m^2), 0 Hr): 236 ± 111 pg/mL
TNFα plasma level (Cohort 8 (3.9 mg/m^2), 0 Hr): 14.9 ± 9.1 pg/mL
G-CSF plasma level (Cohort 8 (3.9 mg/m^2), 4 Hr): 83.3 ± 104.7 pg/mL
MCP-1 plasma level (Cohort 8 (3.9 mg/m^2), 4 Hr): 5227 ± 8362 pg/mL
MIP-1β plasma level (Cohort 8 (3.9 mg/m^2), 4 Hr): 7793 ± 10824 pg/mL
TNFα plasma level (Cohort 8 (3.9 mg/m^2), 4 Hr): 56.9 ± 48.3 pg/mL
G-CSF plasma level (Cohort 8 (3.9 mg/m^2), 8 Hr): 2151 ± 3586 pg/mL
MCP-1 plasma level (Cohort 8 (3.9 mg/m^2), 8 Hr): 8128 ± 10588 pg/mL
MIP-1β plasma level (Cohort 8 (3.9 mg/m^2), 8 Hr): 2259 ± 2456 pg/mL
TNFα plasma level (Cohort 8 (3.9 mg/m^2), 8 Hr): 42.7 ± 27.4 pg/mL
G-CSF plasma level (Cohort 8 (3.9 mg/m^2), 24 Hr): 141.4 ± 228.8 pg/mL
MCP-1 plasma level (Cohort 8 (3.9 mg/m^2), 24 Hr): 532 ± 571 pg/mL
MIP-1β plasma level (Cohort 8 (3.9 mg/m^2), 24 Hr): 276 ± 108 pg/mL
TNFα plasma level (Cohort 8 (3.9 mg/m^2), 24 Hr): 24.2 ± 9.4 pg/mL
